Test results as given in ChEMBL document CHEMBL1201862, “PubChem BioAssay data set” (2004).
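Each compound was tested at five concentrations against cells in 96-well plates for 48 hours. GI50 = concentration required for 50% inhibition of growth.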 The source made the active and inactive calls. No stated cut-off is given here; in the data, active = GI50 up to about 1.1 µM and inactive = higher.

Key:
Experiment in all cases: NCI-60 cell line screen, 48 h
A498 = tested on: A498
HCT-15 = tested on: HCT-15
K562 = tested on: K562
LOX IMVI = tested on: LOX IMVI
Malme-3M = tested on: Malme-3M
NCI-H23 = tested on: NCI-H23
NCI-H522 = tested on: NCI-H522
OVCAR-5 = tested on: OVCAR-5
RPMI-8226 = tested on: RPMI-8226
RXF 393 = tested on: RXF 393
SF-268 = tested on: SF-268
SK-MEL-28 = tested on: SK-MEL-28
SK-MEL-5 = tested on: SK-MEL-5
SNB-19 = tested on: SNB-19
SNB-75 = tested on: SNB-75
TK-10 = tested on: TK-10
UO-31 = tested on: UO-31
COLO 205 = tested on: COLO 205
T47D = tested on: T47D
MDA-MB-231 = tested on: MDA-MB-231

| Compound | GI50 (A498) | GI50 (HCT-15) | GI50 (K562) | GI50 (LOX IMVI) | GI50 (Malme-3M) | GI50 (NCI-H23) | GI50 (NCI-H522) | GI50 (OVCAR-5) | GI50 (RPMI-8226) | GI50 (RXF 393) | GI50 (SF-268) | GI50 (SK-MEL-28) | GI50 (SK-MEL-5) | GI50 (SNB-19) | GI50 (SNB-75) | GI50 (TK-10) | GI50 (UO-31) | GI50 (COLO 205) | GI50 (T47D) | GI50 (MDA-MB-231) |
| --- | --- | --- | --- | --- | --- | --- | --- | --- | --- | --- | --- | --- | --- | --- | --- | --- | --- | --- | --- | --- |
| CCOC(=O)CCCO | > 100 µM (inactive) | > 100 µM | > 100 µM (inactive) | > 100 µM (inactive) | > 100 µM (inactive) | > 100 µM (inactive) | > 100 µM (inactive) | > 100 µM (inactive) | > 100 µM (inactive) | > 100 µM (inactive) | > 100 µM (inactive) | > 100 µM (inactive) | > 100 µM (inactive) | > 100 µM (inactive) | 71.3 µM (inactive) | > 100 µM (inactive) | > 100 µM (inactive) |  |  |  |
| Cn1cnc([N+](=O)[O-])c1Sc1nnc(-c2ccc(Cl)cc2)n1C | 27.8 µM (inactive) |  | 10.7 µM (inactive) | 7.67 µM (inactive) | 10.6 µM (inactive) | 16.6 µM (inactive) | 3.17 µM (inactive) | 20.5 µM (inactive) | 16.4 µM (inactive) | 3.15 µM (inactive) | 20.3 µM (inactive) | 14.2 µM (inactive) |  | 98.2 µM (inactive) | 17.7 µM (inactive) | 17.7 µM (inactive) | 14.6 µM (inactive) | 11.9 µM (inactive) |  |  |
| CC(=O)OCC1OC(Sc2nc(-c3ccc(C)cc3)c(C#N)c(=O)n2C2OC(COC(C)=O)C(OC(C)=O)C(OC(C)=O)C2OC(C)=O)C(OC(C)=O)C(OC(C)=O)C1OC(C)=O (centres undefined) | > 100 µM (inactive) | > 100 µM |  | > 100 µM (inactive) |  | > 100 µM (inactive) | > 100 µM (inactive) | > 100 µM (inactive) | > 100 µM (inactive) | > 100 µM (inactive) | > 100 µM (inactive) | > 100 µM (inactive) | > 100 µM (inactive) | > 100 µM (inactive) | > 100 µM (inactive) | > 100 µM (inactive) | > 100 µM (inactive) |  | > 100 µM (inactive) |  |
| Cc1ccc(-c2n[nH]c(CC#N)n2)cc1 | > 100 µM (inactive) | 66.1 µM | > 100 µM (inactive) | > 100 µM (inactive) | > 100 µM (inactive) | > 100 µM (inactive) | > 100 µM (inactive) | > 100 µM (inactive) |  | > 100 µM (inactive) | > 100 µM (inactive) | > 100 µM (inactive) | > 100 µM (inactive) | 0.608 µM (active) | > 100 µM (inactive) | > 100 µM (inactive) | > 100 µM (inactive) | > 100 µM (inactive) | > 100 µM (inactive) |  |
| O=Cc1c(C(=O)O)[nH]c(=O)[nH]c1=O | > 100 µM (inactive) | > 100 µM | > 100 µM (inactive) | > 100 µM (inactive) | > 100 µM (inactive) | > 100 µM (inactive) | 58.3 µM (inactive) | 39.8 µM (inactive) | > 100 µM (inactive) | > 100 µM (inactive) | > 100 µM (inactive) | > 100 µM (inactive) | 98.6 µM (inactive) | > 100 µM (inactive) | > 100 µM (inactive) | > 100 µM (inactive) | > 100 µM (inactive) | > 100 µM (inactive) |  | > 100 µM (inactive) |
| O=C(NO)C(=O)Nc1cc(Cl)ccc1Cl | > 100 µM (inactive) | > 100 µM | 63.8 µM (inactive) | 16.8 µM (inactive) | > 100 µM (inactive) | > 100 µM (inactive) | 23.9 µM (inactive) | > 100 µM (inactive) | > 100 µM (inactive) | > 100 µM (inactive) | > 100 µM (inactive) | > 100 µM (inactive) | > 100 µM (inactive) | > 100 µM (inactive) | > 100 µM (inactive) | > 100 µM (inactive) | 22 µM (inactive) | > 100 µM (inactive) |  |  |
| CC1=CCP(C(F)(F)F)P(C(F)(F)F)C1 (centres undefined) | > 100 µM (inactive) | > 100 µM | > 100 µM (inactive) | > 100 µM (inactive) | > 100 µM (inactive) | > 100 µM (inactive) | > 100 µM (inactive) | > 100 µM (inactive) | > 100 µM (inactive) | 5.55 µM (inactive) | > 100 µM (inactive) | > 100 µM (inactive) | > 100 µM (inactive) | > 100 µM (inactive) | > 100 µM (inactive) | > 100 µM (inactive) | > 100 µM (inactive) | > 100 µM (inactive) |  |  |
| CC(=O)NC1C(OCc2ccccc2)OC(CO)C(O)C1OCC(=O)N1CCCC1C(=O)N[C@@H](CCC(=O)NCCCCNc1c2ccccc2nc2cccc([N+](=O)[O-])c12)C(N)=O (some centres undefined) | 35.7 µM (inactive) | 42.8 µM | 26.4 µM (inactive) |  | 33.3 µM (inactive) | 15.7 µM (inactive) |  | 25.8 µM (inactive) | 2.64 µM (inactive) |  | 31.6 µM (inactive) | 81.8 µM (inactive) |  | 17.7 µM (inactive) | 21.4 µM (inactive) | 73.8 µM (inactive) | 45.2 µM (inactive) | 18.6 µM (inactive) | 27.4 µM (inactive) |  |
| O=[N+]([O-])c1ccc(C(O)/C(=N/O)c2nc3ccc(Cl)cc3nc2O)cc1 (centres undefined) | > 100 µM (inactive) | > 100 µM | > 100 µM (inactive) | > 100 µM (inactive) | > 100 µM (inactive) |  |  |  | > 100 µM (inactive) | > 100 µM (inactive) | > 100 µM (inactive) |  | > 100 µM (inactive) | > 100 µM (inactive) | > 100 µM (inactive) | > 100 µM (inactive) | > 100 µM (inactive) | > 100 µM (inactive) |  |  |
| COc1cc([C@@H]2c3cc4c(cc3[C@@H](OC(=O)c3ccc(N)cc3)C3COC(=O)[C@@H]32)OCO4)cc(OC)c1O (some centres undefined) | 5.82 µM (inactive) | 12.8 µM | 5.18 µM (inactive) | 10.6 µM (inactive) | 12.3 µM (inactive) | 3.32 µM (inactive) | 2.07 µM (inactive) | 41.5 µM (inactive) | 7.8 µM (inactive) | 2.92 µM (inactive) | 9.59 µM (inactive) | 9.48 µM (inactive) | 3.59 µM (inactive) | 20.7 µM (inactive) | 3.21 µM (inactive) | 17.6 µM (inactive) | 10.2 µM (inactive) | 5.98 µM (inactive) |  |  |
| Cc1ccc(NC(=O)CCC(=O)C2Cc3ccccc3C2=O)cc1C (centres undefined) | > 100 µM (inactive) | > 100 µM | > 100 µM (inactive) | > 100 µM (inactive) | > 100 µM (inactive) | > 100 µM (inactive) | > 100 µM (inactive) | > 100 µM (inactive) | > 100 µM (inactive) | > 100 µM (inactive) | > 100 µM (inactive) | > 100 µM (inactive) | > 100 µM (inactive) | > 100 µM (inactive) | > 100 µM (inactive) | > 100 µM (inactive) | > 100 µM (inactive) | > 100 µM (inactive) |  |  |
| COc1ccc(CN2C(=O)C(Cc3cc(OC)c(OC)c(C)c3OC)N(C(=O)OC(C)C)C(=O)/C2=C/c2cc(OC)c(OC)c(C)c2OC)cc1 (centres undefined) | > 100 µM (inactive) |  | 41 µM (inactive) | > 100 µM (inactive) | 64.9 µM (inactive) | > 100 µM (inactive) | 4.4 µM (inactive) | > 100 µM (inactive) | 16.4 µM (inactive) | 6.9 µM (inactive) | > 100 µM (inactive) | > 100 µM (inactive) | 46.8 µM (inactive) | > 100 µM (inactive) | 83.8 µM (inactive) | > 100 µM (inactive) | 16.6 µM (inactive) | 45.2 µM (inactive) |  |  |
| O=C(N/N=C/c1ccc(Cl)cc1)c1c(Cl)c(Cl)c(Cl)c(Cl)c1-c1nc2ccccc2[nH]1 | 98.2 µM (inactive) | 64.1 µM | 47.9 µM (inactive) | 41.1 µM (inactive) | > 100 µM (inactive) | > 100 µM (inactive) | 55.7 µM (inactive) | > 100 µM (inactive) | 22.2 µM (inactive) | 33 µM (inactive) | > 100 µM (inactive) | > 100 µM (inactive) | 49 µM (inactive) | > 100 µM (inactive) | > 100 µM (inactive) |  | 86.9 µM (inactive) | > 100 µM (inactive) | 4.47 µM (inactive) |  |
| COc1ccc(COC2CC(OC)OC(C)C2OC(=O)c2ccccc2)cc1 (centres undefined) | 61.5 µM (inactive) | 17.8 µM | 27.2 µM (inactive) | 22.6 µM (inactive) | 29 µM (inactive) | 28.4 µM (inactive) | 30.6 µM (inactive) | 30.2 µM (inactive) | 18.5 µM (inactive) | 19.1 µM (inactive) | 39.8 µM (inactive) | 41.2 µM (inactive) | 17 µM (inactive) | > 64.9 µM (inactive) | 38.3 µM (inactive) | 63.7 µM (inactive) | 22.7 µM (inactive) | 34.6 µM (inactive) |  |  |
| N[C@@H]1CCN(c2c(F)cc3c(=O)c(C(=O)O)cn4c3c2Oc2c-4ccc3c2ccc2ccccc23)C1 | 11.9 µM (inactive) | 1.96 µM | 3.1 µM (inactive) | 1.68 µM (inactive) |  | 3.1 µM (inactive) | 3.18 µM (inactive) | 2.86 µM (inactive) | 0.396 µM (active) | 1.2 µM (inactive) | 5.73 µM (inactive) | > 100 µM (inactive) | 1.44 µM (inactive) | 0.344 µM (active) |  | 2.38 µM (inactive) | 3.24 µM (inactive) | 2.99 µM (inactive) |  |  |
| O=C1C(c2c(O)[nH]c3ccc(F)cc23)=Nc2ccccc21 |  | > 100 µM | 44.2 µM (inactive) | > 100 µM (inactive) | > 100 µM (inactive) | 73.1 µM (inactive) | > 100 µM (inactive) | > 100 µM (inactive) | > 100 µM (inactive) | 3.19 µM (inactive) | 15.1 µM (inactive) | > 100 µM (inactive) | > 100 µM (inactive) | 26.5 µM (inactive) | 3.21 µM (inactive) | 22.1 µM (inactive) | > 100 µM (inactive) | > 100 µM (inactive) |  | 12.9 µM (inactive) |
